Reference: ChEMBL document CHEMBL3244266, “Potential antiarthritic agents. 2. Benzoylacetonitriles and beta-aminocinnamonitriles” (J Med Chem, 1979)
Active and inactive are the calls of the source. No cut-off for these calls is given here.

Assays:
Rattus norvegicus [1] = experiment: Antiinflammatory activity against carrageenin-induced edema in rat; assay type: functional, organism-based
Cavia porcellus [2] = species: Cavia porcellus; experiment: Antiinflammatory activity against UV-induced erythema in guinea pig; assay type: functional, organism-based
Rattus norvegicus [3] = experiment: Ulcerogenicity in rat at 800 mg/kg administered daily; assay type: toxicity, organism-based; parameters: dose 800 mg/kg; details: in vivo
Rattus norvegicus [4] = experiment: Antiinflammatory activity against adjuvant-induced arthritis rat model assessed as inhibition of swelling at 50 mg/kg, po measured on day 21 (reference value: 0%); assay type: functional; details: 504 h
Rattus norvegicus [5] = experiment: Antiinflammatory activity against adjuvant-induced arthritis rat model assessed as inhibition of swelling at 50 mg/kg, po measured on day 14 (reference value: 0%); assay type: functional; details: 336 h
Rattus norvegicus [6] = experiment: Antiinflammatory activity against adjuvant-induced arthritis rat model assessed as inhibition of swelling at 25 mg/kg, po measured on day 14 (reference value: 0%); assay type: functional; details: 336 h
Rattus norvegicus [7] = experiment: Antiinflammatory activity against adjuvant-induced arthritis rat model assessed as inhibition of swelling at 100 mg/kg, po measured on day 21 (reference value: 0%); assay type: functional; details: 504 h
Rattus norvegicus [8] = experiment: Antiinflammatory activity against adjuvant-induced arthritis rat model assessed as inhibition of swelling at 25 mg/kg, po measured on day 21 (reference value: 0%); assay type: functional; details: 504 h
Rattus norvegicus [9] = experiment: Antiinflammatory activity against adjuvant-induced arthritis rat model assessed as inhibition of swelling at 100 mg/kg, po measured on day 14 (reference value: 0%); assay type: functional; details: 336 h
Rattus norvegicus [10] = species: Rattus norvegicus; experiment: Antiinflammatory activity against adjuvant-induced arthritis in rat assessed as inhibition of swelling; assay type: functional, organism-based
Rattus norvegicus [11] = experiment: Antiinflammatory activity against adjuvant-induced arthritis rat model assessed as inhibition of swelling at 200 mg/kg, po measured on day 14 (reference value: 0%); assay type: functional; details: 336 h
Rattus norvegicus [12] = experiment: Antiinflammatory activity against adjuvant-induced arthritis rat model assessed as inhibition of swelling at 200 mg/kg, po measured on day 21 (reference value: 0%); assay type: functional; details: 504 h
Plasma = experiment: Drug recovery in rat plasma assessed as total radioactivity at 50 mg/kg, po measured over 7-day period by TLC/HPLC analysis; assay type: ADME, organism-based; parameters: dose 50 mg/kg, route oral; details: in vivo
[13] = Drug recovery in rat urine assessed as total radioactivity at 50 mg/kg, po measured after 24 hrs by TLC/HPLC analysis; assay type: ADME, organism-based; parameters: dose 50 mg/kg, route oral; details: in vivo
Rattus norvegicus [14] = experiment: Antiinflammatory activity against adjuvant-induced arthritis rat model assessed as inhibition of swelling at 2 mg/kg, po measured on day 14 (reference value: 0%); assay type: functional; details: 336 h
Rattus norvegicus [15] = experiment: Antiinflammatory activity against adjuvant-induced arthritis rat model assessed as inhibition of swelling at 1 mg/kg, po measured on day 14 (reference value: 0%); assay type: functional; details: 336 h
Rattus norvegicus [16] = experiment: Antiinflammatory activity against adjuvant-induced arthritis rat model assessed as inhibition of swelling at 2 mg/kg, po measured on day 21 (reference value: 0%); assay type: functional; details: 504 h
Rattus norvegicus [17] = experiment: Antiinflammatory activity against adjuvant-induced arthritis rat model assessed as inhibition of swelling at 1 mg/kg, po measured on day 21 (reference value: 0%); assay type: functional; details: 504 h
Rattus norvegicus [18] = experiment: Antiinflammatory activity against adjuvant-induced arthritis rat model assessed as inhibition of swelling at 0.5 mg/kg, po measured on day 21 (reference value: 0%); assay type: functional; details: 504 h
Rattus norvegicus [19] = experiment: Antiinflammatory activity against adjuvant-induced arthritis rat model assessed as inhibition of swelling at 0.5 mg/kg, po measured on day 14 (reference value: 0%); assay type: functional; details: 336 h
Cavia porcellus [20] = species: Cavia porcellus; experiment: Inhibition of prostaglandin synthetase in guinea pig lung assessed as net production of prostaglandin-like activity; details: tested as the 14C-labelled form
[21] = tested as the 14C-labelled form

Structure (SMILES)	Activity (Rattus norvegicus [1])	Activity (Cavia porcellus [2])	Activity (Rattus norvegicus [3])	inhibition in vivo at 50 mg/kg (Rattus norvegicus [4])	inhibition in vivo at 50 mg/kg (Rattus norvegicus [5])	inhibition in vivo at 25 mg/kg (Rattus norvegicus [6])	inhibition in vivo at 100 mg/kg (Rattus norvegicus [7])	inhibition in vivo at 25 mg/kg (Rattus norvegicus [8])	inhibition in vivo at 100 mg/kg (Rattus norvegicus [9])	also measured
N#C/C=C(\N)c1ccc(F)cc1	inactive	inactive	Non-toxic	25%	43%	26%	29%	14%	53%	
N#C/C=C(\N)c1cccs1	inactive	inactive	Non-toxic	23%	44%	35%	27%	10%	49%	
N#C/C=C(\N)c1ccccc1	Active	Active		52%	58%	39%	54%	25%	65%	
O=C(O)C(O)C(O)c1ccccc1 (centres undefined)										Activity (Rattus norvegicus [1]; [21]): inactive; Activity (Rattus norvegicus [10]; [21]): inactive
N#CCC(=O)c1cccs1	inactive	inactive	Non-toxic	18%	46%		42%		58%	inhibition in vivo at 200 mg/kg (Rattus norvegicus [11]): 72%; inhibition in vivo at 200 mg/kg (Rattus norvegicus [12]): 29%
N#CC[14C](=O)c1ccccc1										Drug recovery (Plasma): 93.3%; Drug recovery [13]: 81.7%
N#CCC(=O)c1ccc(F)cc1	inactive	inactive	Non-toxic	37%	56%	33%	32%	17%	46%	
N#CCC(=O)c1ccccc1F	inactive	inactive	Non-toxic	42%	51%	54%	48%	33%	63%	
N#CCC(=O)c1ccsc1	inactive	inactive	Non-toxic	40%	55%	52%	29%	31%	46%	
N#CCC(=O)c1cccc(F)c1										Activity (Rattus norvegicus [10]): Active
N#C/C=C(\N)c1ccsc1	inactive	inactive	Non-toxic	27%	48%	37%	33%	20%	58%	
O=C(O)CNC(=O)c1ccccc1										Activity (Rattus norvegicus [1]; [21]): inactive; Activity (Rattus norvegicus [10]; [21]): inactive
COc1ccc2c(c1)c(CC(=O)O)c(C)n2C(=O)c1ccc(Cl)cc1 [INDOMETHACIN]										inhibition in vivo at 2 mg/kg (Rattus norvegicus [14]): 68%; inhibition in vivo at 1 mg/kg (Rattus norvegicus [15]): 46%; inhibition in vivo at 2 mg/kg (Rattus norvegicus [16]): 24%; inhibition in vivo at 1 mg/kg (Rattus norvegicus [17]): 19%; inhibition in vivo at 0.5 mg/kg (Rattus norvegicus [18]): 20%; inhibition in vivo at 0.5 mg/kg (Rattus norvegicus [19]): 40%
N#CCC(O)c1ccccc1 (centres undefined)										Activity (Rattus norvegicus [1]; [21]): inactive; Activity (Rattus norvegicus [10]; [21]): inactive
N#C/C=C(\N)c1cccc(F)c1										Activity (Rattus norvegicus [10]): Active
O=C(O)CC(=O)c1ccccc1										Activity (Rattus norvegicus [1]; [21]): inactive; Activity (Rattus norvegicus [10]; [21]): inactive
N#CCC(=O)c1ccccc1	inactive	inactive	Non-toxic	42%	51%	54%	48%	33%	63%	inhibition (Cavia porcellus [20]): Active
